Where a name gives a salt, the structure may show the parent alone.
Experiment: in vitro
Details: rat, gh3-tre-luc cells

Structure (SMILES) | CC50 at 24 h (AC50 (uM) modified / 1000) [µM] | further results
COC(=O)c1ccc2cc(C(=O)OC)ccc2c1 [Dimethyl 2,6-naphthalenedicarboxylate] | > 20 | –
COC(=O)CCSCCC(=O)OC [Dimethyl 3,3'-thiodipropionate] | > 90 | –
COC(=O)CC(C(C)=O)C(=O)OC (stereo not shown) [Dimethyl acetylsuccinate] | > 90 | –
COC(=O)CCCCC(=O)OC [Dimethyl adipate] | > 90 | –
COC(=O)OC [Dimethyl carbonate] | > 90 | –
COC(=O)C(Cl)C(=O)OC [Dimethyl chloromalonate] | > 50 | –
COC(=O)CCCCCCCCC(=O)OC [Dimethyl decanedioate] | > 90 | –
COC(=O)CCCC(=O)OC [Dimethyl glutarate] | > 90 | –
COC(=O)C1CCC(C(=O)OC)CC1 (stereo not shown) [Dimethyl hexahydroterephthalate] | > 90 | –
COC(=O)c1cccc(C(=O)OC)c1 [Dimethyl isophthalate] | > 90 | –
COC(=O)/C=C\C(=O)OC [Dimethyl maleate] | > 90 | –
COC(=O)CC(=O)OC [Dimethyl malonate] | > 100 | –
COC(=O)CCCCCCCC(=O)OC [Dimethyl nonanedioate] | > 90 | –
COC(=O)c1ccccc1C(=O)OC [Dimethyl phthalate] | > 50 | –
COC(=O)CCC(=O)OC [Dimethyl succinate] | > 90 | –
COC(=O)C1CC(=O)C(C(=O)OC)CC1=O (stereo not shown) [Dimethyl succinylsuccinate] | > 5 | –
COS(=O)(=O)OC [Dimethyl sulfate] | > 90 | –
COC(=O)c1ccc(C(=O)OC)cc1 [Dimethyl terephthalate] | > 90 | –
COC(=O)[C@H]1CC[C@H](C(=O)OC)CC1 [Dimethyl trans-cyclohexane-1,4-dicarboxylate] | > 90 | –
C[N+](C)(CCOc1ccccc1)Cc1cccs1 [Dimethyl(2-phenoxyethyl)-2-thenylammonium iodide] | > 50 | –
CN(C)CCO [Dimethylaminoethanol] | > 90 | –
CN(C)CCCCl [Dimethylaminopropyl chloride hydrochloride] | > 100 | –
CNC [Dimethylammonium nitrate] | – | CC50 at 24 h (AC50 (uM) modified / 1000, Tox21_110001=Tox21_200580, viability, 1 nM T3 present, 24 h): > 90 µM
CC(=O)OC(C)(C)Cc1ccccc1 [Dimethylbenzylcarbinyl acetate] | > 90 | –

Structure (SMILES) | CC50 at 24 h (AC50 (uM) modified / 1000) [µM] | further results
CN(C)C(=O)Cl [Dimethylcarbamoyl chloride] | – | CC50 at 24 h (AC50 (uM) modified / 1000, Tox21_110001=Tox21_201334, viability, 1 nM T3 present, 24 h): > 90 µM
CCCCCCCCCCCCCCCCN(C)C [Dimethylcetylamine] | > 5 | –
CN(C)CCCNCCCN [Dimethyldipropylenetriamine] | > 90 | –
CC(=NO)C(C)=NO [Dimethylglyoxime] | > 90 | –
CC(C)N(C)C [Dimethylisopropylamine] | > 90 | –
O=C(NCO)NCO [Dimethylolurea] | > 100 | –
Cc1cc(OC(=O)N(C)C)nn1C(=O)N(C)C [Dimetilan] | – | CC50 at 24 h (AC50 (uM) modified / 1000, Tox21_110001=Tox21_301855, viability, 1 nM T3 present, 24 h): > 90 µM
O=[N+]([O-])c1cc(C2CCCCC2)c(O)c([N+](=O)[O-])c1 [Dinex] | 8.98 | –
CC(C)(C)C(O)/C(=C\c1ccc(Cl)cc1Cl)n1cncn1 (stereo not shown) [Diniconazole] | 73.4 | –
CCN(CC)c1c([N+](=O)[O-])cc(C(F)(F)F)c(N)c1[N+](=O)[O-] [Dinitramine] | 85.3 | –
O=NN1CCN(N=O)CC1 [Dinitrosopiperazine] | > 90 | –
CCC(C)c1cc([N+](=O)[O-])cc([N+](=O)[O-])c1OC(=O)OC(C)C (stereo not shown) [Dinobuton] | 42.5 | –
C/C=C/C(=O)Oc1ccccc1[N+](=O)[O-] [Dinocap] | 14.3 | –
CCCCCCCCCOC(=O)c1ccccc1C(=O)OCCCCCCCCC [Dinonyl phthalate] | > 90 | –
CCCCC[C@H](O)/C=C/[C@H]1[C@H](O)CC(=O)[C@@H]1C/C=C\CCCC(=O)O [Dinoprostone] | > 50 | –
CCC(C)c1cc([N+](=O)[O-])cc([N+](=O)[O-])c1O (stereo not shown) [Dinoseb] | – | CC50 at 24 h (AC50 (uM) modified / 1000, Tox21_110001=Tox21_201878, viability, 1 nM T3 present, 24 h): > 90 µM; CC50 at 24 h (AC50 (uM) modified / 1000, Tox21_110001=Tox21_300421, viability, 1 nM T3 present, 24 h): 20.4 µM
CN/C(=N/CC1CCOC1)N[N+](=O)[O-] (stereo not shown) [Dinotefuran] | > 90 | –
CC(C)(C)c1cc([N+](=O)[O-])cc([N+](=O)[O-])c1O [Dinoterb] | – | CC50 at 24 h (AC50 (uM) modified / 1000, Tox21_110001=Tox21_300743, viability, 1 nM T3 present, 24 h): 8.14 µM
O=[N+]([O-])c1cccc(S(=O)(=O)NCCNS(=O)(=O)c2cccc([N+](=O)[O-])c2)c1 [Dinsed] | > 50 | –
CCC1OCC(COc2ccc(Oc3ccccc3)cc2)O1 (stereo not shown) [Diofenolan] | > 90 | –
COc1ccc(-c2cc(=O)c3c(O)cc(O[C@@H]4O[C@H](CO[C@@H]5O[C@@H](C)[C@H](O)[C@@H](O)[C@H]5O)[C@@H](O)[C@H](O)[C@H]4O)cc3o2)cc1O [Diosmin] | > 50 | –
CNC(=O)Oc1ccccc1C1OCCO1 [Dioxacarb] | – | CC50 at 24 h (AC50 (uM) modified / 1000, Tox21_110001=Tox21_302420, viability, 1 nM T3 present, 24 h): > 90 µM
C=CC(=O)OCC(CO)(COCC(COC(=O)C=C)(COC(=O)C=C)COC(=O)C=C)COC(=O)C=C [Dipentaerythritol pentaacrylate] | 1.74 | –
OCC(CO)(CO)COCC(CO)(CO)CO [Dipentaerythritol] | > 90 | –

Structure (SMILES) | CC50 at 24 h (AC50 (uM) modified / 1000) [µM] | further results
CC1CCC(C(C)CS)CC1S (stereo not shown) [Dipentenedimercaptan] | > 90 | –
CCCCCOC(=O)c1ccccc1C(=O)OCCCCC [Dipentyl phthalate] | > 90 | –
CCCCCNCCCCC [Dipentylamine] | > 90 | –
O=C(Nc1ccccc1)OCC(CN1CCCCC1)OC(=O)Nc1ccccc1 (stereo not shown) [Diperodon hydrochloride] | 10.5 | –
O=C1c2ccccc2C(=O)C1C(=O)C(c1ccccc1)c1ccccc1 [Diphacinone] | – | CC50 at 24 h (AC50 (uM) modified / 1000, Tox21_110001=Tox21_111893, viability, 1 nM T3 present, 24 h): > 50 µM
C[N+]1(C)CCC(=C(c2ccccc2)c2ccccc2)CC1 [Diphemanil methylsulfate] | > 20 | –
CN(C)C(=O)C(c1ccccc1)c1ccccc1 [Diphenamid] | > 90 | –
NC(=O)Oc1ccc(Cc2ccccc2)cc1 [Diphenan] | > 50 | –
OC(CCCN1CCCCC1)(c1ccccc1)c1ccccc1 [Diphenidol] | > 50 | –
CC(CCC(=O)O)(c1ccc(O)cc1)c1ccc(O)cc1 [Diphenolic acid] | > 90 | –
CCOC(=O)C1(c2ccccc2)CCN(CCC(C#N)(c2ccccc2)c2ccccc2)CC1 [Diphenoxylate hydrochloride] | – | CC50 at 24 h (AC50 (uM) modified / 1000, Tox21_110001=Tox21_112593, viability, 1 nM T3 present, 24 h): > 50 µM; CC50 at 24 h (AC50 (uM) modified / 1000, Tox21_110001=Tox21_112825, viability, 1 nM T3 present, 24 h): 19.7 µM
c1ccc(SSc2ccccc2)cc1 [Diphenyl disulfide] | > 90 | –
O=C(Oc1ccccc1)c1cccc(C(=O)Oc2ccccc2)c1 [Diphenyl isophthalate] | > 100 | –
c1ccc(Oc2ccccc2)cc1 [Diphenyl oxide] | > 90 | –
O=P(O)(Oc1ccccc1)Oc1ccccc1 [Diphenyl phosphate] | – | CC50 at 24 h (AC50 (uM) modified / 1000, Tox21_110001=Tox21_303401, viability, 1 nM T3 present, 24 h): > 90 µM
O=C(Oc1ccccc1)c1ccccc1C(=O)Oc1ccccc1 [Diphenyl phthalate] | 53.7 | –
c1ccc(Sc2ccccc2)cc1 [Diphenyl sulfide] | > 90 | –
N#CC(c1ccccc1)c1ccccc1 [Diphenylacetonitrile] | – | CC50 at 24 h (AC50 (uM) modified / 1000, Tox21_110001=Tox21_201556, viability, 1 nM T3 present, 24 h): > 90 µM
c1ccc(Nc2ccccc2)cc1 [Diphenylamine] | > 90 | –
O=C(Oc1ccccc1)Oc1ccccc1 [Diphenylcarbonate] | > 90 | –
O=c1c(-c2ccccc2)c1-c1ccccc1 [Diphenylcyclopropenone] | 5.54 | –
c1ccc(Cc2ccccc2)cc1 [Diphenylmethane] | > 90 | –
CN1CCC(OC(c2ccccc2)c2ccccc2)CC1 [Diphenylpyraline hydrochloride] | > 20 | –

From article PMC6792352, “Limited Chemical Structural Diversity Found to Modulate Thyroid Hormone Receptor in the Tox21 Chemical Library” (Environmental Health Perspectives, 2019)
